Experimental data published in patent publication US4806538A, “Piperazine compound as PAF-antagonist” (Fujisawa Pharmaceutical Co., Ltd., priority 1984, dated 1989).
≈ marks a conversion by molar mass, not a printed value.

Legend:
[1] = tested on: Platelet aggregation induced with PAF; test: Test 1: inhibition of PAF-induced platelet aggregation in platelet rich plasma; format: cell-based, Japanese white rabbit; settings: Oryctolagus cuniculus, rabbit PRP, 5×10^5 cells/mm^3, final concentration of PAF usually 20 nM
Protocol: (Inhibition of platelet aggregation)
Blood was collected through the polyethylene catheter introduced into the carotid artery of male Japanese white rabbit (2.5 to 3 kg body weight). The blood was anticoagulated with 1 volume of 3.8% sodium citrate to 9 volume of blood. Platelet rich plasma (PRP) was prepared by centrifugation of the blood at 150 g for 10 minutes at room temperature. The PRP was diluted with platelet poor plasma obtained by further centrifugation of the blood at 1,000 g for 20 minutes. The platelet number was 5×10^5 cells/mm^3. Platelet aggregation induced with PAF was measured by the nephelometric technique of Born and Cross [cf. Journal of Physiology 168, 178-188 (1963)] using HKK Hema tracer (trade name, made by Niko Bioscience Inc.).
Activities of inhibitors were expressed as IC50 value, i.e. concentrations required to inhibit the platelet aggregation response by 50%. The final concentration of PAF was usually 20 nM.

[2] = tested on: vascular permeability increase induced by intradermally injected PAF; test: Test 4: inhibition of vascular permeability increase induced by intradermally injected PAF in mice (test compound orally); format: in vivo, ddY mice; settings: 100 mg/kg orally, 30 minutes before Evans blue; PAF 50 ng intradermally; 30 minutes after PAF
Protocol: (§1) (Inhibition of vascular permeability increase induced by intradermally injected PAF in mice)
Five-week old male ddY mice were used. The test compound suspended in 0.5 methylcellulose suspension was administered orally 30 minutes before the Evans blue injection (0.125% solution in saline, 10 ml/kg, i.v.).
PAF (50 ng, 50 μl per site) was injected intradermally to the depilated back of the mice 5 minutes after the Evans blue injection.
(§2) The inhibitory activity of the test compound was monitored 30 minutes after the PAF injection by assessment of blueing reaction with Evans blue dye in mice skin.

[3] = tested on: synthetic PAF induced hypotension; test: Test 2: inhibition of hypotensive effect induced by intravenously injected PAF in rats; format: in vivo, Sprague-Dowley rats; settings: 3 minutes before PAF (1 μg/kg i.v.), anesthetized rats
Protocol: (Inhibition of hypotensive effect induced by intraveneously injected PAF in rats)
Seven-week old Sprague-Dowley rats were anesthetized with urethane (1 g/kg, i. p.). Catheters were introduced into the femoral artery and vein for the measurement of arterial pressure and the administration of the test compound, respectively. Blood pressure was recorded from femoral artery using a transducer coupled to the Biophysiograph 180 System (San-Ei Instrument Co., Ltd.). Inhibitory activity of the test compound was shown in the following Table as the inhibition percentage of the synthetic PAF induced hypotension. PAF was administered intravenously at a dose of 1 μg/kg. The test compound was administered intravenously 3 minutes before PAF injection.

[4] = tested on: vascular permeability increase induced by intradermally injected PAF; test: Test 3: inhibition of vascular permeability increase induced by intradermally injected PAF in mice (test compound i.p.); format: in vivo, ddY mice; settings: 10 mg/kg i.p., 15 minutes before Evans blue; PAF 50 ng intradermally; 30 minutes after PAF
Protocol: as §1
Six-week old male ddY mice were used. The test compound was administered intraperitoneally 15 minutes before the Evans blue injection (0.125% solution in saline, 0.2 ml/mouse, i.v.).
PAF (50 ng, 50 μl per size) was injected intradermally to the depilated back of the mice 5 minutes after the Evans blue injection.
as §2

IC50 [1]	SMILES	further results
0.55 mg/L (≈ 1.59 µM)	CSCCCC1NC(=O)[C@@H](Cc2cn(C)c3ccccc23)NC1=O (single isomer, unassigned) [Test compound 5]	–
0.71 mg/L (≈ 2.14 µM)	CSCC[C@H]1NC(=O)[C@@H](Cc2cn(C)c3ccccc23)NC1=O [Example 1, (3R,6R)-3-(1-methylindol-3-ylmethyl)-6-(2-methylthioethyl)piperazine-2,5-dione]	–
0.84 mg/L (≈ 2.34 µM)	CSCC[C@@H]1C(=O)N(C)[C@H](Cc2cn(C)c3ccccc23)C(=O)N1C [Example 4, (3R,6R)-1,4-dimethyl-3-(1-methylindol-3-ylmethyl)-6-(2-methylthioethyl)piperazine-2,5-dione]	–
0.16 mg/L (≈ 0.441 µM)	C[C@H](c1cn(C)c2ccccc12)[C@H]1NC(=O)[C@@H](Cc2ccccn2)NC1=O [Example 18, (3R,6R)-3-[(R)-1-(1-methylindol-3-yl)ethyl]-6-(2-pyridylmethyl)piperazine-2,5-dione]	Inhibition of vascular permeability increase (%) [2]: 56.7%
1.04 mg/L (≈ 3.32 µM)	CC(C)C[C@H]1NC(=O)[C@@H](Cc2cn(C)c3ccccc23)NC1=O [Test compound 2]	Inhibition maximum (%) of hypotensive effect ([3]; 10 mg/kg i.v.): 75%; Inhibition of vascular permeability increase (%) [4]: 30%
1.2 mg/L (≈ 3 µM)	Cn1cc(C[C@H]2NC(=O)[C@@H](Cc3cn(C)c4ccccc34)NC2=O)c2ccccc21 [Test compound 7]	–
0.58 mg/L (≈ 1.85 µM)	CCCC[C@H]1NC(=O)[C@@H](Cc2cn(C)c3ccccc23)NC1=O [Test compound 8]	–
0.061 mg/L (≈ 0.178 µM)	CSCC[C@H]1NC(=O)[C@@H]([C@H](C)c2cccc3ccccc23)NC1=O [Test compound 9]	Inhibition maximum (%) of hypotensive effect ([3]; 3 mg/kg i.v.): 51%; Inhibition of vascular permeability increase (%) [4]: 40%
0.48 mg/L (≈ 1.46 µM)	CSCC[C@H]1NC(=O)[C@@H](Cc2cccc3ccccc23)NC1=O [Test compound 10]	–
0.58 mg/L (≈ 1.53 µM)	CSCC[C@H]1NC(=O)[C@@H](Cc2c3ccccc3cc3ccccc23)NC1=O [Test compound 11]	–
0.65 mg/L (≈ 1.9 µM)	CSCC[C@H]1NC(=O)[C@@H]([C@@H](C)c2cccc3ccccc23)NC1=O [Test compound 12]	–
0.72 mg/L (≈ 1.77 µM)	CSCC[C@H]1NC(=O)[C@@H](Cc2c(-c3ccccc3)n(C)c3ccccc23)NC1=O [Test compound 13]	–
0.93 mg/L (≈ 3.11 µM)	CCC[C@H]1NC(=O)[C@@H](Cc2cn(C)c3ccccc23)NC1=O [Test compound 14]	–
0.59 mg/L (≈ 1.59 µM)	CSCC[C@@H]1C(=O)N(C)[C@H]([C@H](C)c2cccc3ccccc23)C(=O)N1C [Test compound 16]	–
